Source: patent US7553823B2, “C-pyrazole A2A receptor agonists” (CV Therapeutics, Inc., priority 1999, dated 2009)
Read-outs that look alike come from different tables or passages of the source.

How the values were obtained:
[1] = target: A2A adenosine receptor (Rattus norvegicus, UniProt P30543); test: Reversal time of coronary vasodilation after bolus injection in rat isolated perfused hearts; settings: rat isolated perfused hearts, bolus into perfusion line
Experimental: Animals were anesthetized by peritoneal injection of a cocktail containing ketamine and xylazine (ketamine 100 mg, xylazine 20 mg/ml). The chest was opened and the heart quickly removed. The heart was briefly rinse in ice-cold Krebs-Henseleit solution (see below), and the aorta cannulated. […] The heart was electrically paced at a fixed cycle length of 340 ms (250 beats/min) using a bipolar electrode place on the left atrium. The electrical stimuli were generated by a Grass stimulator (Model S48, W. Warwick, R.I) and delivered through a Stimuli Isolation Unit (Model SIU5, Astro-Med, Inc., NY) as square-wave pulses of 3 msec in duration and amplitude of at least twice the threshold intensity.
Coronary perfusion pressure (CPP) was measured using a pressure transducer, connected to the aortic cannula via a T-connector positioned approximately 3 cm above the heart. Coronary perfusion pressure was monitored throughout the experiment and recorded either on a chart recorder (Gould Recorder 2200S) or a computerized recording system (PowerLab/4S, ADInstruments Pty Ltd, Australia). Only hearts with CPP ranging from 60 to 85 mmHg (in the absence of drugs) were used in the study.
Protocol: Bolus injections. […] The times to 50% (t 0.5) and 90% (t 0.9) reversal of the decrease in CPP were measured. Each heart was exposed to a maximum of three vasodilators.

[2] = target: T1, A1 AdoR (Rattus norvegicus, UniProt P25099); test: A-V nodal conduction time (negative dromotropic effect) in rat isolated perfused hearts; settings: Compound 18 0.1-30 μM, CVT510 100-400 nM
T1 construct: from tissue; host or cells: Sprague Dawley rat isolated perfused heart
T1 sequence (P25099 1-326): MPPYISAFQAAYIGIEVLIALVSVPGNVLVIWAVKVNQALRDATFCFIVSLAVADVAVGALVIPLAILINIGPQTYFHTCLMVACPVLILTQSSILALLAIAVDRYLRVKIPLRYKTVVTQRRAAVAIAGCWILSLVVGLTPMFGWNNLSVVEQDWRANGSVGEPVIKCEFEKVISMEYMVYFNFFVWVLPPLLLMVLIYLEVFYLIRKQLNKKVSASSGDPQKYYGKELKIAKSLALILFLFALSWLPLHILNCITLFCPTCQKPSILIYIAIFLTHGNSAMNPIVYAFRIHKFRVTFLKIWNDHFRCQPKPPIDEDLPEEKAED
Experimental: In experiments in which A1 adenosine receptor-mediated negative dromotropic effect was measured, atrial and ventricular surface electrograms were recorded during constant atrial pacing. The effect of various adenosine receptor agonists on atrioventricular conduction time was determined as described previously by Jenkins and Belardinelli Circ. Res. 63: 97-116 (1988).
(§1) Rats and guinea pigs, of either sex weighing from 230 to 260 grams and 300 to 350 grams, respectively, were used in this study. Animals were anesthetized by peritoneal injection of a cocktail containing ketamine and xylazine (ketamine 100 mg, xylazine 20 mg/ml). The chest was opened and the heart quickly removed. The heart was briefly rinse in ice-cold Krebs-Henseleit solution (see below), and the aorta cannulated. […]
(§2) A1 adenosine receptor-mediated depression of A-V nodal conduction time (negative dromotropic effect) was measured. Atrial and ventricular surface electrograms in rats and H is bundle electrogram in guinea pigs, were recorded during constant atrial pacing. The effects of Compound 18 on atrioventricular conduction time and stimulus-to-His-bundle (S-H interval) were determined as described previously by Jenkins and Belardinelli (1988).
The effects of Compound 18 on coronary conductance (A2A effect) and atrioventricular conduction time or stimulus-to-His-bundle (S-H) interval (A1 effect) was then determined. […]

[3] = system: A2A AdoR; test: Closing statement of Example 8 on potency and efficacy as A2A AdoR agonist coronary vasodilator (test not specified)
[4] = target: T2, human A1 AdoR (Homo sapiens, UniProt P30542); test: Competition binding, [3H]DPCPX binding sites on CHO-hA1AdoR cell membranes; settings: Gpp(NH)p 100 μM
T2 construct: expressed in transfected cells
T2 sequence (P30542 1-326): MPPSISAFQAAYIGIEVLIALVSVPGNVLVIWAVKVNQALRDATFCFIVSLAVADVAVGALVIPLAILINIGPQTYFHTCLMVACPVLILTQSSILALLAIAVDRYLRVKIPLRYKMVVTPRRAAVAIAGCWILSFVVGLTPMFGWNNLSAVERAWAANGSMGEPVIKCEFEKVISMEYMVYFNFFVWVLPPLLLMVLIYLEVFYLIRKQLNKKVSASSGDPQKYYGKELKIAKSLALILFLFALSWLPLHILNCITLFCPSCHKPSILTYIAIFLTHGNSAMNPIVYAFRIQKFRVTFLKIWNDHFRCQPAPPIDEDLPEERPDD

[5] = target: A2A receptor (Sus scrofa, UniProt K9IW67); test: Affinity for the A2A receptor in a pig striatum membrane prep (displacement of tritiated ZM 241385); assay type: binding; settings: pig striatal membranes, tritiated ZM 241385 2 nM, 23 C 2 h; read-out: A2a Ki
Experimental: Compounds of this invention were assayed to determine their affinity for the A2A receptor in a pig striatum membrane prep. Briefly, 0.2 mg of pig striatal membranes were treated with adenosine deaminase and 50 mM Tris buffer (pH=7.4) followed by mixing. […] After incubation at 23 C for 2 h, then the solutions were filtered using a membrane harvester using multiple washing of the membranes (3×). The filter disks were counted in scintillation cocktail affording the amount of displacement of tritiated ZM by the competitive binding compounds of this invention. Greater than a 5 point curve was used to generate IC50's and the number of experiments is indicated in the column marked in Table 1 below.

[6] = system: A2A AdoR; test: Coronary blood flow and reversal time of coronary vasodilation in open-chest anesthetized pigs; settings: pig, intracoronary infusion 50 μg/kg/min
Experimental: Farm pigs weighing 22-27 kg were used in this study. […] In addition, animals were used in accordance with the guidelines of the University of Kentucky Institutional Animal Care and Use Protocol.
Anesthesia was anesthetized with ketamine (20 mg/kg, i.m.) and sodium pentobarbital (15-18 mg/kg i.v.). Anesthesia was maintained with additional sodium pentobarbital (1.5-2 mg/kg, i.v.) every 15-20 minutes. Ventilation was maintained via a tracheotomy using a mixture of room air and 100% O2. Tidal volume, respiratory rate and fraction of O2 in inspired air were adjusted to maintain normal arterial blood gas (ABG) and pH values. […] Lactate Ringers solution was administered via an ear or femoral vein, at 5-7 ml/kg/min after a initial bolus of 300-400 ml. A catheter was inserted into the femoral artery to monitor arterial blood pressure and to obtain ABG samples.
The heart was exposed through a median sternotomy, and suspended in a pericardial cradle. Left ventricular pressure (LVP) was measured with a 5F high fidelity pressure sensitive tip transducer (Millar Instruments, Houston, Tex.) placed in the left ventricular cavity via the apex and secured with a purse string suture. A segment of the left anterior descending coronary artery (LAD), proximal to the origin of the first diagonal branch, was dissected free of, surrounding tissue. A transmit time perivascular flow probe (Transonic Systems Inc., Ithaca, N.Y.) was placed around this segment to measure coronary blood flow (CBF). Proximal to the flow probe a 24 g modified angiocatheter was inserted for intracoronary infusions. […] A2A AdoR agonists were dissolved in DMSO to produce stock concentrations of 1-5 mM, which were diluted in 0.9% saline and infused at rates of 1-1.5 ml/min. The A2A AdoR agonists were administered intracoronary. To maintain blood pressure constant, phenylephrine was administered intravenously. The phenylephrine stock solution (30 mM) was prepared in distilled water.
Prior to initiating the experiment, a 30-minute stabilization period followed the completion of all instrumentation. After obtaining the baseline hemodynamic data the first intracoronary infusion of an A2A ADOR agonist was initiated. Infusions were maintained for 4-5 minutes to allow LAD CBF to reach a steadystate, after which the infusion was terminated. The time to recovery of 50% (t 0.5) and 90% (t 0.9) of baseline CBF were recorded. Ten to 15 minutes after CBF returned to pre-drug values a second infusion with a different agonist was started. […] The effect of a maximum of three different agonists was determined in each experiment.

[7] = target: A2A AdoR (Rattus norvegicus, UniProt P30543); test: Increase of coronary conductance in rat isolated perfused hearts
Experimental: (§3) Adult Sprague Dawley rats and Hartley guinea pigs of either sex weighing from 230 to 260 grams and 300 to 350 grams, respectively were used in this study. Animals were anesthetized by peritoneal injection of a cocktail containing ketamine and xylazine (ketamine 100 mg, xylazin 20 mg/ml). The chest was opened and the heart quickly removed. The heart was briefly rinse in ice-cold Krebs-Henseleit solution (see below), and the aorta cannulated. […] The heart was electrically paced at a fixed cycle length of 340 ms (250 beats/min) using a bipolar electrode place on the left atrium. The electrical stimuli were generated by a Grass stimulator (Model S48, W. Warwick, R.I.) and delivered through a Stimuli Isolation Unit (Model SIU5, Astro-Med, Inc., NY) as square-wave pulses of 3-msec in duration and amplitude of at least twice the threshold intensity.
Coronary perfusion pressure (CPP) was measured using a pressure transducer, connected to the aortic cannula via a T-connector positioned approximately 3 cm above the heart. Coronary perfusion pressure was monitored throughout the experiment and recorded either on a chart recorder (Gould Recorder 2200S) or a computerized recording system (PowerLab/4S, ADinstruments Pty Ltd, Australia). Only hearts with CPP ranging from 60 to 85 mmHg (in the absence of drugs) were used in the study.
One concentration was made from the stock solution by dilution into saline to yield solution of either 2×10^−4 or 2×10^−5 M. These solutions were injected into the perfusion line of the apparatus as boluses of 20 μl. In some experiments the solutions were placed into a 30 ml glass syringe and the drugs were infused at rates necessary to achieve the desired perfusate concentrations (e.g, 10, 100 nM, etc).
Hearts were instrumented for continuous recording of coronary perfusion pressure (A2A response) and atrioventricular (A-V) conduction time or S-H interval (A1 response).

[8] = target: A2A AdoR (Cavia porcellus, UniProt P46616); test: Increase of coronary conductance in guinea pig isolated perfused hearts
Experimental: as §3
Coronary perfusion pressure (CPP) was measured using a pressure transducer, connected to the aortic cannula via a T-connector positioned approximately 3 cm above the heart. Coronary perfusion pressure was monitored throughout the experiment and recorded either on a chart recorder (Gould Recorder 2200S) or a computerized recording system (PowerLab/4S, ADinstruments Pty Ltd, Australia). Only hearts with CPP ranging from 60 to 85 mmHg (in the absence of drugs) were used in the study. […]

[9] = target: human A2A AdoR (Homo sapiens, UniProt P29274); test: Competition binding, [3H]ZM241385 binding sites on HEK-hA2AAR cell membranes; settings: for Ki: HEK-hA2AAR Cells, [3H]ZM241385, Gpp(NH)p 100 μM
Experimental: To make membranes, cells were detached from the culture plates into ice-cold 50 mmol/L Tris-HCI buffer (pH7.4). The cell suspensions were homogenized with Polytron at setting 4 for 30 seconds, and spun at 48,000 g for 15 minutes. The pellets were washed three times by re-suspension in ice-cold Tris-HCI buffer and centrifugation. The final pellet was re-suspended in a small volume of Tris-HCI, aliquoted and frozen at −80° C. until used for receptor binding assays. The protein concentration of membrane suspensions was determined using the Bradford method (Bio-Rad) with bovine serum as standards.
At the end of incubation, bound and free radioligands were separated by filtration through Whatman GF/C glass fiber filters using a Brandel tissue harvester (Gaithersburg, Md.). Triplicate determinations were performed for each concentration of the competing agent.
The affinity (Ki) of various CVT compounds for the A1 and A2A adenosine receptor were determined by their potency to compete for [^3H]CPX (A1) or [^3H]ZM241385 (A2A) binding sites on membranes derived from CHO-hA1AdoR, PC12 or HEK-HA2AAdoR cells.

[10] = target: T3, A1 AdoR (Cavia porcellus, UniProt P47745); test: Stimulus-to-His-bundle (S-H) interval in guinea pig isolated perfused hearts; settings: concentrations as high as 50 μM
T3 construct: from tissue; host or cells: Hartley guinea pig isolated perfused heart
T3 sequence (P47745 1-326): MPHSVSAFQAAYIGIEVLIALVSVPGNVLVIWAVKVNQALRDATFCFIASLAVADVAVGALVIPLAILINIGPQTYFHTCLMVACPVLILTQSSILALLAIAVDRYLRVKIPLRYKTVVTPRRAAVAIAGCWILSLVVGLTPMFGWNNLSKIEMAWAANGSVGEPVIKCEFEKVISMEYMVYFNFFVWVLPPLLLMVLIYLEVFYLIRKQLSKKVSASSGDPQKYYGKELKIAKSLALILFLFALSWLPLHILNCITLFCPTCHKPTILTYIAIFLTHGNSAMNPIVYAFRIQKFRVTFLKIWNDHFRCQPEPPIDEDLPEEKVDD
Experimental: as §1, §2
The effects of Compound 18 on coronary conductance (A2A effect) and atrioventricular conduction time or stimulus-to-His-bundle (S-H) interval (A1 effect) was then determined. […] In each experiment, concentration-response relationship of Compound 18 (n=5 rats, 5 guinea pigs) to increase coronary conductance and to prolong A-V conduction time or S-H interval was determined. […]

Sequence of A2A AdoR (Rattus norvegicus, UniProt P30543) (P30543 whole entry, the tested form may be a part): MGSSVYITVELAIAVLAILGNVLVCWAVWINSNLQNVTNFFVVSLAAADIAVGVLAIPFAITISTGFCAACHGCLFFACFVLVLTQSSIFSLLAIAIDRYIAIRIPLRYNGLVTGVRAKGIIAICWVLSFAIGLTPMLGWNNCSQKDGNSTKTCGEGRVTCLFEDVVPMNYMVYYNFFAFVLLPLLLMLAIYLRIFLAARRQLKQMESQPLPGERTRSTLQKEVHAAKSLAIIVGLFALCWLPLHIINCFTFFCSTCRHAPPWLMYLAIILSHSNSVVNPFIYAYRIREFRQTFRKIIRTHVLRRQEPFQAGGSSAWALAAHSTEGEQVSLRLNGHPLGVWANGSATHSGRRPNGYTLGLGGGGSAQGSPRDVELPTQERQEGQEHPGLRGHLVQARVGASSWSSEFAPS
Sequence of human A2A AdoR (P29274 whole entry, the tested form may be a part): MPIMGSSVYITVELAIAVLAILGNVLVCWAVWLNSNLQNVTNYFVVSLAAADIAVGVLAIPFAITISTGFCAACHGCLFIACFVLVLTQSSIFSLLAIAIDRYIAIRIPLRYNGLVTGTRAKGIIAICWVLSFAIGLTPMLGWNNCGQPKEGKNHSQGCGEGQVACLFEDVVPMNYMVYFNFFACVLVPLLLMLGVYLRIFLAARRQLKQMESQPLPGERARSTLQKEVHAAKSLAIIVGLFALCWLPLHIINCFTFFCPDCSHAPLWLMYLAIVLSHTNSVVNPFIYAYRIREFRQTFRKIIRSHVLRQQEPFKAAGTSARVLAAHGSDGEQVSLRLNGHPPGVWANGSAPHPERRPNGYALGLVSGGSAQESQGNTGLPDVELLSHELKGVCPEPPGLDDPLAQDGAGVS
Sequence of A2A adenosine receptor (P30543 whole entry, the tested form may be a part): as the sequence (P30543 whole entry, the tested form may be a part) above
Sequence of A2A receptor (K9IW67 1-409): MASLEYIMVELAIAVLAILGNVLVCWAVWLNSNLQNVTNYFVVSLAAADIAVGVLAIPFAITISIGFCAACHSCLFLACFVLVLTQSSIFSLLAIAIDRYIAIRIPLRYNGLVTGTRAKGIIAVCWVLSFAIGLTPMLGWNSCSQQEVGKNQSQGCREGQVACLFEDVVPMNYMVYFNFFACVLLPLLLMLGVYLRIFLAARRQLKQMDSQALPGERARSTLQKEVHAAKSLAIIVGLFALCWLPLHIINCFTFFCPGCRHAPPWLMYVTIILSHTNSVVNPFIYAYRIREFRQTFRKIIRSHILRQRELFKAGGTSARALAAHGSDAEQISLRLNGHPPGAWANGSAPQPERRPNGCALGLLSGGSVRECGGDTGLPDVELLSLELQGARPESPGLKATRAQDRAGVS
Sequence of A2A AdoR (Cavia porcellus, UniProt P46616) (P46616 whole entry, the tested form may be a part): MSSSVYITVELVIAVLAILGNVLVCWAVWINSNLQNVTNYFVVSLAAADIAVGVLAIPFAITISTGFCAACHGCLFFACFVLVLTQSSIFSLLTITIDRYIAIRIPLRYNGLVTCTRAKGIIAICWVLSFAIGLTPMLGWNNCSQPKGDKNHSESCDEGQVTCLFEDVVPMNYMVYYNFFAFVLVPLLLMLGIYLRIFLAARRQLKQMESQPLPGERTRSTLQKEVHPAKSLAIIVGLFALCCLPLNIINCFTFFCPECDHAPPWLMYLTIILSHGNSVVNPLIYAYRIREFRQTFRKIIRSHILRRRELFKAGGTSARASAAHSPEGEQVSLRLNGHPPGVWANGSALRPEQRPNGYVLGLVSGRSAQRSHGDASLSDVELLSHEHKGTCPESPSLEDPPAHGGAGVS

CCCCCn1cc(-c2nc(N)c3ncn([C@@H]4O[C@H](CO)[C@@H](O)[C@H]4O)c3n2)cn1 [Compound 18, (4S,2R,3R,5R)-2-[6-amino-2-(1-pentylpyrazol-4-yl)purin-9 yl]-5-(hydroxymethyl)oxolane-3,4-diol]
t 0.5, time to 50% reversal of the increase in coronary conductance [1]: 3.4 ± 0.5 min
t 0.9, time to 90% reversal of the increase in coronary conductance [1]: 8.4 ± 2.2 min
effect on A-V nodal conduction time [2]: did not prolong
agonist efficacy to cause coronary vasodilation [3]: full agonists
less potent than the prototypical agonist CGS21680 ([3]; relative to CGS21680): 10 fold
Ki ([4]; read-out: Binding Affinity Ki, CHO-hA1AR): 5.84 µM
Ki ([4]; read-out: Binding Affinity pKi ± SEM, CHO-hA1AR (converted)): 5.75 µM
Ki [5]: 7.09 ± 0.78 µM
CBF ("Fold Increase") above baseline, maximal [6]: 3.33 ± 0.58 fold
t0.5, time to 50% reversal of the increase in coronary blood flow [6]: 3.1 ± 0.9 min
t0.9, time to 90% reversal of the increase in coronary blood flow [6]: 12.0 ± 1.0 min
EC50 ([7]; EC50 to increase coronary conductance in rat hearts, Example 7, n=5 rats): 0.0689 ± 0.0096 µM
EC50 ([7]; Potency (EC50) to increase coronary conductance, Rat, rat isolated perfused hearts, Table 3): 0.0679 ± 0.0167 µM
effect on coronary conductance ([7]; isolated perfused hearts (36 rats and 18 guinea pigs), atrial cycle length 340 msec): concentration-dependent increase
relative potency in increasing coronary conductance ([7]; isolated perfused hearts, rat and guinea pig): about as potent as adenosine
EC50 [8]: 0.203 ± 0.022 µM
greater affinity for A2A than A1 AdoR ([9]; A2A vs A1 AdoR): > 2 fold
Ki ([9]; Binding Affinity Ki): 2.9 µM
Ki ([9]; Binding Affinity pKi ± SEM): 2.88 µM
effect on S-H interval [10]: no prolongation
